The text below walks through data of patent US20170334927A1 (Shanghai Sun-sail Pharmaceutical Science & Technology Co., …, priority 2014, published 2017).

Holding throughout (test): microbe, parasite or virus in culture
What all share (type): cell-based

The test system of assay [1] is drug-resistant Mycobacterium tuberculosis 261 (rifampicin-resistant). To be noted: for MIC: Mycobacterium tuberculosis, read-out: MIC, drug-resistant bacterium 261 (R single-resistant); for MIC value, times of that of the control drug PA-824, strain 261: relative to PA-824.
Assay [2] has as its system drug-resistant Mycobacterium tuberculosis 242 (isoniazid-resistant). To be noted: for MIC: Mycobacterium tuberculosis, read-out: MIC, drug-resistant bacterium 242 (H single-resistant); for MIC value, times of that of the control drug PA-824, strain 242: relative to PA-824.
Assay [3] concerns drug-resistant Mycobacterium tuberculosis 246 (streptomycin-resistant). To be noted: for MIC: Mycobacterium tuberculosis, read-out: MIC, drug-resistant bacterium 246 (S single-resistant); for MIC value, times of that of the control drug PA-824, strain 246: relative to PA-824.

≈ marks a conversion by molar mass, not a printed value.

As for `CC1CN(c2ccc(OC(F)(F)F)cc2)CCN1c1ccc(CN[C@@H]2COc3nc([N+](=O)[O-])cn3C2)cn1` (stereo partly drawn) [Compound 6, (3S)—N-((6-(2-methyl-4-(4-(trifluoromethoxy)phenyl)piperazin-1-yl)pyrid-3-yl)methyl)-7-nitro-3,4-dihydro-2H-imidazo[2,1-b][1,3]oxazin-3-amine], the MIC stood at 7.8 ng/mL (≈ 0.0146 µM) in assay [1], 15.6 ng/mL (≈ 0.0292 µM) in assay [2] and 7.8 ng/mL (≈ 0.0146 µM) in assay [3].
On to `CN(Cc1cnc(N2CCN(c3ccc(OC(F)(F)F)cc3)CC2)nc1)[C@@H]1COc2nc([N+](=O)[O-])cn2C1` [Compound 44, (S)—N-methyl-2-nitro-N-((2-(4-(4-(trifluoromethoxy)phenyl)piperazin-1-yl)pyrimidin-5-yl)methyl)-6,7-dihydro-5H-imidazo[2,1-b][1,3]oxazin-6-amine], for which, in assay [1], the MIC was 1.95 ng/mL (≈ 0.00365 µM) and the “MIC value, times of that of the control drug PA-824, strain 261” value (“MIC value, times of that … strain 261” for short) worked out at 256 times. Besides, in assay [2], the MIC was 1.95 ng/mL (≈ 0.00365 µM) and the “MIC value, times of that of the control drug PA-824, strain 242” value (“MIC value, times of that … strain 242” for short) is on record as 512 times. In addition, in assay [3], the MIC came out at 1.95 ng/mL (≈ 0.00365 µM) and the “MIC value, times of that of the control drug PA-824, strain 246” value (“MIC value, times of that … strain 246” for short) came to 256 times.
On to `O=[N+]([O-])c1cn2c(n1)OC[C@@H](NCc1cnc(N3CCN(c4ccc(C(F)(F)F)cc4)CC3)nc1)C2` [Compound 31, (S)-2-nitro-N-((2-(4-(4-(trifluoromethyl)phenyl)piperazin-1-yl)pyrimidin-5-yl)methyl)-6,7-dihydro-5H-imidazo[2,1-b][1,3]oxazin-6-amine], for which the MIC in assay [1], in assay [2] and in assay [3] was 7.8 ng/mL (≈ 0.0155 µM) throughout.
Take `CC1CN(c2ncc(CN[C@@H]3COc4nc([N+](=O)[O-])cn4C3)cn2)CCN1c1ccc(OC(F)(F)F)cc1` (stereo partly drawn) [Compound 19]: in assay [1], the MIC was found to be 7.8 ng/mL (≈ 0.0146 µM) and the “MIC value, times of that … strain 261” value came to 64 times. Further, in assay [2], the MIC turned out to be 7.8 ng/mL (≈ 0.0146 µM) and the “MIC value, times of that … strain 242” value is 128 times. In assay [3], the MIC came out at 7.8 ng/mL (≈ 0.0146 µM) and the “MIC value, times of that … strain 246” value is on record as 64 times.
On to `O=[N+]([O-])c1cn2c(n1)OC[C@@H](NCc1ccc(N3C4CCC3CC(Oc3ccc(OC(F)(F)F)cc3)C4)nc1)C2` (stereo partly drawn) [Compound 14, (6S)-2-nitro-N-((6-(3-(4-(trifluoromethoxy)phenoxy)-8-azabicyclo[3.2.1]octan-8-yl)pyrid-3-yl)methyl)-6,7-dihydro-5H-imidazo[2,1-b][1,3]oxazin-6-amine], for which the values for the MIC in assay [1], in assay [2] and in assay [3] were 7.8 ng/mL (≈ 0.0139 µM), 15.6 ng/mL (≈ 0.0278 µM) and 7.8 ng/mL (≈ 0.0139 µM), respectively.
On to `Cc1nc(N2CCN(c3ccc(OC(F)(F)F)cc3)CC2)ncc1CN[C@@H]1COc2nc([N+](=O)[O-])cn2C1` [Compound 36], for which, in assay [1], the MIC was determined as 7.8 ng/mL (≈ 0.0146 µM) and the “MIC value, times of that … strain 261” value is 64 times. Also, in assay [2], the MIC was determined as 7.8 ng/mL (≈ 0.0146 µM) and the “MIC value, times of that … strain 242” value was determined as 128 times. Further, in assay [3], the MIC was determined as 7.8 ng/mL (≈ 0.0146 µM) and the “MIC value, times of that … strain 246” value was 64 times.
Regarding `CC1CN(c2ccc(OC(F)(F)F)cc2)CCN1c1ncc(CN[C@@H]2COc3nc([N+](=O)[O-])cn3C2)cn1` (stereo partly drawn) [Compound 20, (3S)—N-((6-(2-methyl-4-(4-(trifluoromethoxy)phenyl)piperazin-1-yl)pyrimidin-3-yl)methyl)-7-nitro-3,4-dihydro-2H-imidazo[2,1-b][1,3]oxazin-3-amine], in assay [1], the MIC worked out at 1.95 ng/mL (≈ 0.00365 µM) and the “MIC value, times of that … strain 261” value was 256 times. In assay [2], the MIC came out at 1.95 ng/mL (≈ 0.00365 µM) and the “MIC value, times of that … strain 242” value turned out to be 512 times. In addition, in assay [3], the MIC was 1.95 ng/mL (≈ 0.00365 µM) and the “MIC value, times of that … strain 246” value was determined as 256 times.
`N#CC1(c2ccc(OC(F)(F)F)cc2)CCN(c2ccc(CN[C@@H]3COc4nc([N+](=O)[O-])cn4C3)cn2)CC1` [Compound 10, (S)-1-(5-(((7-nitro-3,4-dihydro-2H-imidazo[2,1-b][1,3]oxazin-3-yl)amino)methyl)pyridin-2-yl)-4-(4-(trifluoromethoxy)phenyl)piperidine-4-carbonitrile]: in assay [1], the MIC is 1.95 ng/mL (≈ 0.00359 µM) and the “MIC value, times of that … strain 261” value is 256 times. In addition, in assay [2], the MIC worked out at 1.95 ng/mL (≈ 0.00359 µM) and the “MIC value, times of that … strain 242” value is 512 times. In addition, in assay [3], the MIC turned out to be 1.95 ng/mL (≈ 0.00359 µM) and the “MIC value, times of that … strain 246” value is reported as 256 times.
On to `O=[N+]([O-])c1cn2c(n1)OC[C@@H](NCc1ccc(N3CCN(c4ccc(OC(F)(F)F)cc4)CC3)nc1)C2` [Compound 4, (S)-2-nitro-N-((6-(4-(4-(trifluoromethoxy)phenyl)piperazin-1-yl)pyrid-3-yl)methyl)-6,7-dihydro-5H-imidazo[2,1-b][1,3]oxazin-6-amine], for which, in assay [1], the MIC came out at 1.95 ng/mL (≈ 0.00375 µM) and the “MIC value, times of that … strain 261” value came out at 256 times. Besides, in assay [2], the MIC amounted to 1.95 ng/mL (≈ 0.00375 µM) and the “MIC value, times of that … strain 242” value was 512 times. In assay [3], the MIC stood at 1.95 ng/mL (≈ 0.00375 µM) and the “MIC value, times of that … strain 246” value was determined as 256 times.
On to `N#Cc1nc(N2CCN(c3ccc(OC(F)(F)F)cc3)CC2)ncc1CN[C@@H]1COc2nc([N+](=O)[O-])cn2C1` [Compound 40, (S)-5-(((2-nitro-6,7-dihydro-5H-imidazo[2,1-b][1,3]oxazin-6-yl)amino)methyl)-2-(4-(4-(trifluoromethoxy)phenyl)piperazin-1-yl)pyrimidine-4-carbonitrile], for which, in assay [1], the MIC came to 7.8 ng/mL (≈ 0.0143 µM) and the “MIC value, times of that … strain 261” value is reported as 64 times. Also, in assay [2], the MIC came to 7.8 ng/mL (≈ 0.0143 µM) and the “MIC value, times of that … strain 242” value is 128 times. In addition, in assay [3], the MIC stood at 7.8 ng/mL (≈ 0.0143 µM) and the “MIC value, times of that … strain 246” value came to 64 times.
Consider `N#CC1(c2ccc(OC(F)(F)F)cc2)CCN(c2ncc(CN[C@@H]3COc4nc([N+](=O)[O-])cn4C3)cn2)CC1` [Compound 24, (S)-1-(5-(((7-nitro-3,4-dihydro-2H-imidazo[2,1-b][1,3]oxazin-3-yl)amino)methyl)pyrimidin-2-yl)-4-(4-(trifluoromethoxy)phenyl)piperidine-4-carbonitrile], for which, in assay [1], the MIC was 3.9 ng/mL (≈ 0.00716 µM) and the “MIC value, times of that … strain 261” value is listed as 128 times. In addition, in assay [2], the MIC stood at 3.9 ng/mL (≈ 0.00716 µM) and the “MIC value, times of that … strain 242” value amounted to 256 times. In addition, in assay [3], the MIC was found to be 3.9 ng/mL (≈ 0.00716 µM) and the “MIC value, times of that … strain 246” value was determined as 128 times.
Take `O=[N+]([O-])c1cn2c(n1)OC[C@@H](OCc1ccc(OC(F)(F)F)cc1)C2` [PA-824, reference compound]: the MIC in assay [1] was found to be 500 ng/mL (≈ 1.39 µM); in assay [2] it was 1000 ng/mL (≈ 2.78 µM); in assay [3] it was 500 ng/mL (≈ 1.39 µM).
As for `CC1CN(c2ccc(CN[C@@H]3COc4nc([N+](=O)[O-])cn4C3)cn2)CCN1c1ccc(OC(F)(F)F)cc1` (stereo partly drawn) [Compound 5, (3S)—N-((6-(3-methyl-4-(4-(trifluoromethoxy)phenyl)piperazin-1-yl)pyrid-3-yl)methyl)-7-nitro-3,4-dihydro-2H-imidazo[2,1-b][1,3]oxazin-3-amine], the MIC stood at 1.95 ng/mL (≈ 0.00366 µM) in assay [1], 3.9 ng/mL (≈ 0.00731 µM) in assay [2] and 1.95 ng/mL (≈ 0.00366 µM) in assay [3].
`O=[N+]([O-])c1cn2c(n1)OC[C@@H](NCc1ccc(N3CCC(Oc4ccc(OC(F)(F)F)cc4)CC3)nc1)C2` [Compound 1, (S)-2-nitro-N-((6-(4-(4-(trifluoromethoxy)phenoxy)piperidin-1-yl)pyrid-3-yl)methyl)-6,7-dihydro-5H-imidazo[2,1-b][1,3]oxazin-6-amine]: in assay [1], the MIC came out at 7.8 ng/mL (≈ 0.0146 µM) and the “MIC value, times of that … strain 261” value is 64 times. Also, in assay [2], the MIC is 7.8 ng/mL (≈ 0.0146 µM) and the “MIC value, times of that … strain 242” value was 128 times. In addition, in assay [3], the MIC was 7.8 ng/mL (≈ 0.0146 µM) and the “MIC value, times of that … strain 246” value is 64 times.
`O=[N+]([O-])c1cn2c(n1)OC[C@@H](NCc1cnc(N3CCN(c4ccc(OC(F)(F)F)cc4)CC3)nc1)C2` [Compound 18]: in assay [1], the MIC is 7.8 ng/mL (≈ 0.015 µM) and the “MIC value, times of that … strain 261” value is recorded as 64 times. Further, in assay [2], the MIC stood at 7.8 ng/mL (≈ 0.015 µM) and the “MIC value, times of that … strain 242” value is 128 times. Besides, in assay [3], the MIC came to 7.8 ng/mL (≈ 0.015 µM) and the “MIC value, times of that … strain 246” value is given as 64 times.
